Data set [1] has as its system Entecavir-resistance mutant HBV-Pol (HBV-Pol-ETVr, L180M/T184G/S202I/M204I). Nature of the data set: Evaluation method for HBV replication activity with Entecavir-resistance mutant HBV-Pol. The data set is classed as cell-based, hepatitis B virus; HeLa cells. The conditions noted are these: Example 9, FIG. 12B (e, f); HeLa cells, 0.020-5.000 μM, 24 hours. The source says: (§1) As described in the section of “background art”, long-term administration of conventional anti-HBV drugs made of a nucleotide/nucleoside analog such as Entecavir and Lamivudine causes the emergence of drug-resistant HBV. As a cause of the emergence of such a drug-resistant HBV, a mutation within the region of reverse transcription enzyme (RT) of HBV-Pol has been reported.
(§2) Then, mutant HBV-Pol expression vectors having M204I mutation, and L180M/T184G/S202I/M204I mutations respectively introduced therein were prepared in accordance with a conventional method and designated as HBV-P-LAMr, and HBV-P-ETVr, respectively. As the MAPKK inhibitor, Hypothemycin was used. As a negative control against a drug-resistant HBV, an existing anti-HBV drug, Entecavir, was used.
(§3) HBV replication evaluation was carried out in the same manner as in the evaluation method for HBV replication activity described in Example 1. The evaluation vector for HBV replication activity, and expression vectors of a wild type HBV-P or mutant HBV-P (HBV-P-LAMr or HBV-P-ETVr), HBc and HBx were introduced in the same ratio as in Example 2; at the same time, Hypothemycin or Entecavir was introduced in amounts of 0.000 μM, 0.020 μM, 0.039 μM, 0.078 μM, 0.156 μM, 0.313 μM, 0.625 μM, 1.250 μM, 2.500 μM or 5.000 μM. Culture was carried out under a 5% CO2 atmosphere at 37° C. […]

Data set [2] relates to Lamivudine-resistance mutant HBV-Pol (HBV-Pol-LAMr, M204I). Nature of the data set: Evaluation method for HBV replication activity with Lamivudine-resistance mutant HBV-Pol. The class given is cell-based, hepatitis B virus; HeLa cells. To be noted: Example 9, FIG. 12B (c, d); HeLa cells, 0.020-5.000 μM, 24 hours.
Description: as §1, §2, §3

Data set [3] deals with HBV DNA replication (reverse transcription of reporter pgRNA by wild type HBV-Pol). The data set is described as follows: Evaluation method for HBV replication activity: reporter-minus strand DNA quantified by real time PCR in transfected HeLa cells. To be noted: 24 hours; for suppression of reverse transcription by wild-type HBV-Pol: Example 9, FIG. 12B (a, b), 0.020-5.000 μM. The class given is cell-based, hepatitis B virus (genotype C); HeLa cells. On the procedure: To HeLa cells, the evaluation vector for HBV replication activity, HBV-P expression vector, HBc expression vector and HBx expression vector were introduced in various combinations (Introduction step). Combination patterns are as described in FIG. 4A. Transfection of the HeLa cells was carried out by electroporation. DNA (10 μg) was introduced into about 1×10^6 HeLa cells in the conditions of 125 V/2.5 ms plus length by an electroporator, Nepa 21 (Nepa Gene Co., Ltd.). The ratio of HBc expression vector:HBV-P expression vector:HBx expression vector was set to be 9:3:1. If there was an expression vector not to be introduced depending on the combination, the same ratio of an empty vector (pCI) as that of the expression vector not to be introduced was introduced. The ratio of the evaluation vector for HBV replication activity and the total of other expression vectors was set to be 1: 1 (5 μg: 5 μg). If there was an expression vector not to be introduced, pCI was introduced at the ratio corresponding to that of the expression vector.
After transfection, the HeLa cells were cultured in DMEM supplemented with 2 mL of 10% FBS in the presence of 5% CO2 at 37° C. for 48 hours (Culturing step).
After culture, DNA was extracted from the HeLa cells by means of DNeasy Mini (Qiagen). As the primer, a primer pair of a forward primer consisting of the nucleotide sequence represented by SEQ ID NO: 38 and a reverse primer consisting of the nucleotide sequence represented by SEQ ID NO: 39, was used. The forward primer has the two nucleotides at the 3′ terminal, which match the two nucleotides at the 5′ terminal of the exon present on the downstream side; however, fail to match two nucleotides at the 5′ terminal of the intron. Accordingly, the forward primer functions as a primer only in the case where reporter-minus strand DNA having a reporter sequence from which the intron was removed is present, and amplification can be made by using the reporter-minus strand DNA as a template to provide a DNA fragment of 131 nucleotides.
In accordance with the evaluation method for HBV replication activity described in Example 1, an evaluation vector for HBV replication activity, HBV-P expression vector, HBc expression vector and HBx expression vector were introduced in HeLa cells. […]
To HeLa cells, an evaluation vector for HBV replication activity, and expression vectors of HBV-P, HVc and HBx were introduced in the ratio described in the evaluation method for HBV replication activity described in Example 2. […] The absorbance of the culture solution was measured at 450 nm/650 nm to evaluate the survival rates of the cells. […]
In general terms: In qPCR the cycle at which signal appears reflects the starting amount.

In data set [4] the test system is genomic DNA (G3PDH exon 8) of HeLa cells. Nature of the data set: Amount of genomic DNA (G3PDH exon 8) in HeLa cells by real time PCR. The data set is classed as cell-based, human (HeLa cells). To be noted: Example 3, FIG. 6B, serially diluted. On the procedure:
(§4) To HeLa cells, an evaluation vector for HBV replication activity, and expression vectors of HBV-P, HVc and HBx were introduced in the ratio described in the evaluation method for HBV replication activity described in Example 2. Thereafter, the HeLa cells were cultured in a 96-well plate containing a culture solution supplemented with a 0.25% n-butanol extract of a filamentous fungus culture, under 5% CO2 atmosphere at 37° C. Twenty-four hours later, WST-8 (Nacalai) was added to the culture solution, which was further subjected to culture for 2 hours. The absorbance of the culture solution was measured at 450 nm/650 nm to evaluate the survival rates of the cells.
(§5) After the culture solution was removed, DNA in the cell cytoplasm was recovered by a treatment with 50 μl of Buffer A (10 mM HEPES, 1.5 mM MgCl2, 10 mM KCl, 0.5 mM DTT, 0.05% NP40, pH7.9) and subjected to real time PCR performed in accordance with the method of Example 1. As the result of primary screening of 800 extracts (200 strains, 4 culture solutions), 162 extracts inhibiting 25% or more of HBV DNA replication (reverse transcription) and having a cytotoxic activity of 80% or less were selected as a primary hit.
(§6) Subsequently, 162 extracts primarily hit were serially diluted and added to an evaluation system. […]

In data set [5] the test system is mitochondrial DNA (ND5) of HeLa cells. The data set is described as follows: Amount of mitochondrial DNA (ND5) in HeLa cells by real time PCR. The conditions noted are these: Example 3, FIG. 6C, serially diluted. The data set is classed as cell-based, human (HeLa cells). On the procedure:
as §4, §5, §6

Data set [6] concerns the target HBV/C-Pol (hepatitis B virus polymerase, Genotype C), wild type (hepatitis B virus, Genotype C) (UniProt Q9YZR5). The data set is described as follows: cell-based or functional assay.

Turning to `C=C1[C@H](CO)[C@@H](O)C[C@@H]1n1cnc2c(=O)[nH]c(N)nc21` [Entecavir], the “suppression of reverse transcription activity of Entecavir-resistance mutant HBV-Pol” value in data set [1] was “not substantially suppressed”. The “suppression of reverse transcription activity of Lamivudine-resistance mutant HBV-Pol” value in data set [2] is listed as “weak”. For the same compound, in data set [3] (Example 2, FIG. 5, 0.04-5.00 μM/well), the “amount of the reporter-minus strand DNA (replication of HBV DNA)” value was “decreased in an Entecavir-concentration depending manner”. In addition, the “suppression of reverse transcription by wild-type HBV-Pol” value in data set [3] is on record as “suppressed reverse transcription by a wild-type HBV-Pol in a concentration-dependent manner”.

For Hypothemycin, in data set [1], the “suppression of reverse transcription activity of Entecavir-resistance mutant HBV-Pol” value is “all in a concentration-dependent manner”. Besides, the “amount of genomic DNA (G3PDH exon 8)” value in data set [4] was “not affected”. Further, the “suppression of reverse transcription activity of Lamivudine-resistance mutant HBV-Pol” value in data set [2] is “all in a concentration-dependent manner”. In addition, in data set [3] (Example 3, FIG. 6A, serially diluted), the “replication of HBV DNA” value is given as “inhibited replication of HBV DNA in a concentration-dependent manner”. In addition, the “suppression of reverse transcription by wild-type HBV-Pol” value in data set [3] was “all in a concentration-dependent manner”. The “amount of mitochondrial DNA (ND5)” value in data set [5] is “not affected”.

On to “constitutively active human MEK1 (S218E/S222E) (from UniProt Q02750 1-393) (enzyme)”, for which the HBV replication (reporter-minus strand DNA by real time PCR) in HeLa cells under forced expression of MEK1 in data set [6] came to 10 fold.

Source of the values: patent US20220202770A1, “COMPOSITION FOR TREATING HEPATITIS B, AND METHOD FOR EVALUATING REPLICATION ACTIVITY OF HEPATITIS B VIRUS” (priority 2016, published 2022).
